According to patent publication US20230113037A1 (Bayer Aktiengesellschaft, priority 2019, published 2023):

Tests used:
[1] = molecular target: T1, AHR (Homo sapiens, UniProt P35869); experiment: In vitro assay 1: antagonism in human cell line (AHR transactivation, firefly luciferase reporter, kynurenic acid prestimulated); type: cell-based; conditions: AHR Antagonism Human IC50 [M]
T1 construct: U87 MG glioblastoma cells (ATCC #HTB-14) endogenously expressing AHR; endogenous in cells; host or cells: U87 MG glioblastoma cells (ATCC #HTB-14)
T1 sequence (P35869 11-848): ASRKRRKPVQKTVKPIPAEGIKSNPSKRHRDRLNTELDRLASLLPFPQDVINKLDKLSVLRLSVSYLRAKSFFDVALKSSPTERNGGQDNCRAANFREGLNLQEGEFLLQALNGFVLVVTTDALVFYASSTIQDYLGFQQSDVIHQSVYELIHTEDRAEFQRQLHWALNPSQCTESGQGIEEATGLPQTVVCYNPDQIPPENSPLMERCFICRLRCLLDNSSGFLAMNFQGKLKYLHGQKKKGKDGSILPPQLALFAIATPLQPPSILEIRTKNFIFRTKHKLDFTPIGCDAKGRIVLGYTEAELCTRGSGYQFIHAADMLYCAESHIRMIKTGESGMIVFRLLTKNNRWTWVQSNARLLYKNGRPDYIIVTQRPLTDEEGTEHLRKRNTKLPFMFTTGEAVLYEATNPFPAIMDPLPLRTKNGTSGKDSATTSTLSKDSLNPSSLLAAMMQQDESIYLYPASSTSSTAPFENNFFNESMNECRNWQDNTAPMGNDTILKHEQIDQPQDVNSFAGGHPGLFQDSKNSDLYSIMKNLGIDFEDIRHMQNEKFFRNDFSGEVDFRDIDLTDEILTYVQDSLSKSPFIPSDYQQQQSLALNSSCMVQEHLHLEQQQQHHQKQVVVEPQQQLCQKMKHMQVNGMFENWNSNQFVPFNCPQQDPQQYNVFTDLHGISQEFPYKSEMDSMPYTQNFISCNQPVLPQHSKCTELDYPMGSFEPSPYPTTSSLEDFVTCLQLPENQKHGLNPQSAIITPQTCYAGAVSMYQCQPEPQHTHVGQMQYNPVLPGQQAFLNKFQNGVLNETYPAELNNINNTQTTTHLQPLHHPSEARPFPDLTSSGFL
Summary of the method: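 Antagonism measured as loss of kynurenic acid-driven firefly luciferase from DRE reporter in stably transfected U87 MG cells; constitutive Renilla signal monitors cytotoxicity. Positive/negative control normalization, staurosporine 5 μM with 150 μM kynurenic acid as inhibition control; replicates given as mean or median.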

[2] = molecular target: T2, AHR (Mus musculus, UniProt P30561); experiment: In vitro assay 3: antagonism in mouse cell line (AHR transactivation, firefly luciferase reporter, kynurenic acid prestimulated); type: cell-based; conditions: mouse Hepa 1c1c7 cells, 200 μM kynurenic acid, 20 hours, read-out: AHR Antagonism Mouse IC50
T2 sequence (P30561 1-848 P471L/N533S/M589L): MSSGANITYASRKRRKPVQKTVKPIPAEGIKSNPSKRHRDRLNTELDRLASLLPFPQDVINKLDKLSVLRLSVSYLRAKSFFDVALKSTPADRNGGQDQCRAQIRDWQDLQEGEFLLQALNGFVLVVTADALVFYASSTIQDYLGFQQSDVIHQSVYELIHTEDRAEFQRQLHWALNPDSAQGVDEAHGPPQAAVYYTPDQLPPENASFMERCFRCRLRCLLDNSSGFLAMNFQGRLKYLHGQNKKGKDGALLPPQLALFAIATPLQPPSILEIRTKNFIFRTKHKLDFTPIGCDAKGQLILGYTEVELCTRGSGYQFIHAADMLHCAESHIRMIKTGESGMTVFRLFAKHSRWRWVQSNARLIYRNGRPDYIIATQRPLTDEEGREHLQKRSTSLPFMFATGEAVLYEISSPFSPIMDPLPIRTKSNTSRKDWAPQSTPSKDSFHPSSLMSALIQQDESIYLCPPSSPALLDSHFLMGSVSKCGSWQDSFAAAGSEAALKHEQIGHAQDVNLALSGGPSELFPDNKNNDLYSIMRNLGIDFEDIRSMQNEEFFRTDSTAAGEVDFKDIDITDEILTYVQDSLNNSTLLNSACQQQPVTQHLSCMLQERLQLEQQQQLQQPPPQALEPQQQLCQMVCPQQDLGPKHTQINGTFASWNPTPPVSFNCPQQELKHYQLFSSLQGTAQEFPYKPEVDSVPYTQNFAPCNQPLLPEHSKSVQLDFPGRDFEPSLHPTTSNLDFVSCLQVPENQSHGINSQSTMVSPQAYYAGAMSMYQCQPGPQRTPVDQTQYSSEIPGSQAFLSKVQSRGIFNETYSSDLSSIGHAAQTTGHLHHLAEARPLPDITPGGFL
Summary of the method: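 Kynurenic acid-prestimulated mouse reporter cells; stable AHR-inducible firefly luc construct with DRE sites in promoter. No-agonist wells = positive inhibition ctrl. Luminescence normalized to pos/neg ctrls; n>1 reported as mean or median.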

Compound | IC50 [1] [M] | IC50 [2] [nM]
CCC[C@@H](Nc1nc2ccccc2c2nc(-c3cc(Cl)ccc3OC(F)(F)F)nn12)C(=O)NC [Example 501, N^2-{2-[5-chloro-2-(trifluoromethoxy)phenyl][1,2,4]triazolo[1,5-c]quinazolin-5-yl}-N-methyl-D-norvalinamide] | > 2e-05 | 90.8
CCCCNC(=O)CNc1nc2ccccc2c2nc(-c3cc(Cl)ccc3OC(F)(F)F)nn12 [Example 503, N-butyl-N^2-{2-[5-chloro-2-(trifluoromethoxy)phenyl][1,2,4]triazolo[1,5-c]quinazolin-5-yl}glycinamide] | > 2e-05 | > 20000
CC[C@@H](Nc1nc2ccccc2c2nc(-c3cc(Cl)ccc3OC(F)(F)F)nn12)C(N)=O [Example 504, (2R)-2-({2-[5-chloro-2-(trifluoromethoxy)phenyl][1,2,4]triazolo[1,5-c]quinazolin-5-yl}amino)butanamide] | 3.65e-07 | 37.9
O=C1NCCCC[C@H]1Nc1nc2ccccc2c2nc(-c3cc(Br)ccc3OC(F)(F)F)nn12 [Example 505, (3R)-3-({2-[5-bromo-2-(trifluoromethoxy)phenyl][1,2,4]triazolo[1,5-c]quinazolin-5-yl}amino)azepan-2-one] | > 2e-05 | 50.7
O=C1NCCCC[C@@H]1Nc1nc2ccccc2c2nc(-c3cc(Br)ccc3OC(F)(F)F)nn12 [Example 506, (3S)-3-({2-[5-bromo-2-(trifluoromethoxy)phenyl][1,2,4]triazolo[1,5-c]quinazolin-5-yl}amino)azepan-2-one] | > 2e-05 | > 20000
CC[C@@H](Nc1nc2ccccc2c2nc(-c3cc(Br)ccc3OC(F)(F)F)nn12)C(N)=O [Example 507, (2R)-2-({2-[5-bromo-2-(trifluoromethoxy)phenyl][1,2,4]triazolo[1,5-c]quinazolin-5-yl}amino)butanamide] | 3.44e-07 | 41.2
COc1ccc(-c2nc3c4ccccc4nc(N[C@H]4CCCCNC4=O)n3n2)c(OC(F)(F)F)c1 [Example 509, (3S)-3-({2-[4-methoxy-2-(trifluoromethoxy)phenyl][1,2,4]triazolo[1,5-c]quinazolin-5-yl}amino)azepan-2-one] | 1.03e-07 | 56.9
CCC[C@@H](Nc1nc2ccccc2c2nc(-c3ccc(OC)cc3OC(F)(F)F)nn12)C(=O)NC [Example 510, N^2-{2-[4-methoxy-2-(trifluoromethoxy)phenyl][1,2,4]triazolo[1,5-c]quinazolin-5-yl}-N-methyl-D-norvalinamide] | 5.39e-08 | 11.7
COc1ccc(-c2nc3c4ccccc4nc(N[C@H]4CCCCNC4=O)n3n2)c(C(F)(F)F)c1 [Example 513, (3S)-3-({2-[4-methoxy-2-(trifluoromethyl)phenyl][1,2,4]triazolo[1,5-c]quinazolin-5-yl}amino)azepan-2-one] | 2.66e-07 | 35.6
CC[C@H](Nc1nc2ccccc2c2nc(-c3ccc(OC)cc3C(F)(F)F)nn12)C(N)=O [Example 514, (2S)-2-({2-[4-methoxy-2-(trifluoromethyl)phenyl][1,2,4]triazolo[1,5-c]quinazolin-5-yl}amino)butanamide] | > 2e-05 | 188
CC[C@H](Nc1nc2ccccc2c2nc(-c3ccc(Cl)cc3OC(F)(F)F)nn12)C(N)=O [Example 522, (2S)-2-({2-[4-chloro-2-(trifluoromethoxy)phenyl][1,2,4]triazolo[1,5-c]quinazolin-5-yl}amino)butanamide] | > 2e-05 | 29.1

Compounds with a lower IC50 [1], results first:

IC50 [1] [M] | IC50 [2] [nM] | Compound
3.53e-09 | 4.21 | COc1ccc(-c2nc3c4ccccc4nc(N[C@@H]4CCCCNC4=O)n3n2)c(OC(F)(F)F)c1 [Example 508, (3R)-3-({2-[4-methoxy-2-(trifluoromethoxy)phenyl][1,2,4]triazolo[1,5-c]quinazolin-5-yl}amino)azepan-2-one]
7.5e-09 | 1.4 | CC[C@@H](Nc1nc2ccccc2c2nc(-c3ccc(OC)cc3OC(F)(F)F)nn12)C(N)=O [Example 511, (2R)-2-({2-[4-methoxy-2-(trifluoromethoxy)phenyl][1,2,4]triazolo[1,5-c]quinazolin-5-yl}amino)butanamide]
1.04e-08 | 2.48 | COc1ccc(-c2nc3c4ccccc4nc(N[C@@H]4CCCCNC4=O)n3n2)c(C(F)(F)F)c1 [Example 512, (3R)-3-({2-[4-methoxy-2-(trifluoromethyl)phenyl][1,2,4]triazolo[1,5-c]quinazolin-5-yl}amino)azepan-2-one]
3.17e-08 | 2.06 | CC[C@@H](Nc1nc2ccccc2c2nc(-c3ccc(OC)cc3C(F)(F)F)nn12)C(N)=O [Example 515, (2R)-2-({2-[4-methoxy-2-(trifluoromethyl)phenyl][1,2,4]triazolo[1,5-c]quinazolin-5-yl}amino)butanamide]
4.64e-09 | 2.18 | O=C1NCCCC[C@H]1Nc1nc2ccccc2c2nc(-c3ccc(F)cc3OC(F)(F)F)nn12 [Example 516, (3R)-3-({2-[4-fluoro-2-(trifluoromethoxy)phenyl][1,2,4]triazolo[1,5-c]quinazolin-5-yl}amino)azepan-2-one]
1.47e-09 | 2.31 | O=C1NCCCC[C@H]1Nc1nc2ccccc2c2nc(-c3ccc(Cl)cc3OC(F)(F)F)nn12 [Example 517, (3R)-3-({2-[4-chloro-2-(trifluoromethoxy)phenyl][1,2,4]triazolo[1,5-c]quinazolin-5-yl}amino)azepan-2-one]
4.5e-08 | 7.94 | O=C1NCCCC[C@@H]1Nc1nc2ccccc2c2nc(-c3ccc(Cl)cc3OC(F)(F)F)nn12 [Example 518, (3S)-3-({2-[4-chloro-2-(trifluoromethoxy)phenyl][1,2,4]triazolo[1,5-c]quinazolin-5-yl}amino)azepan-2-one]
3.65e-08 | 22.2 | O=C1NCCC[C@H]1Nc1nc2ccccc2c2nc(-c3ccc(Cl)cc3OC(F)(F)F)nn12 [Example 519, (3R)-3-({2-[4-chloro-2-(trifluoromethoxy)phenyl][1,2,4]triazolo[1,5-c]quinazolin-5-yl}amino)piperidin-2-one]
3.05e-08 | 9.59 | O=C1NCC[C@H]1Nc1nc2ccccc2c2nc(-c3ccc(Cl)cc3OC(F)(F)F)nn12 [Example 520, (3R)-3-({2-[4-chloro-2-(trifluoromethoxy)phenyl][1,2,4]triazolo[1,5-c]quinazolin-5-yl}amino)pyrrolidin-2-one]
2.04e-08 | 12.2 | CCCCNC(=O)[C@H](C)Nc1nc2ccccc2c2nc(-c3ccc(Cl)cc3OC(F)(F)F)nn12 [Example 521, N-butyl-N^2-{2-[4-chloro-2-(trifluoromethoxy)phenyl][1,2,4]triazolo[1,5-c]quinazolin-5-yl}alaninamide]
4.99e-09 | 0.84 | CC[C@@H](Nc1nc2ccccc2c2nc(-c3ccc(Cl)cc3OC(F)(F)F)nn12)C(N)=O [Example 523, (2R)-2-({2-[4-chloro-2-(trifluoromethoxy)phenyl][1,2,4]triazolo[1,5-c]quinazolin-5-yl}amino)butanamide]
